Laboratory results published in patent publication US20150274703A1, “1H-Indole-3-Carboxamide Derivatives And Use Thereof As P2Y12 Antagonists” (SANOFI, priority 2012, published 2015).
Counter-ions that a name gives are not always drawn. Like-named read-outs stand apart in the source and are kept apart here.

Tests used:
[1] = system: platelet aggregation (rat blood, platelet-rich plasma); assay: Inhibition of platelet aggregation in vitro (rat blood); assay type: cell-based; details: 0.1 h, Sprague-Dawley rat PRP, area under the curve of absorbance over 6 minutes
Procedure: Inhibition of Platelet Aggregation In Vitro (Rat Blood) Blood is taken from male rats of the Sprague-Dawley strain, weighing 250-300 g. The sample is taken on 3.8% sodium citrate (1 volume for 9 blood volumes) by abdominal aortic puncture after the animal has been anesthetized with sodium pentobarbital. The platelet-rich plasma (PRP) is obtained by centrifugation of the blood at 300 g for 5 minutes, and the platelet aggregation measurements are carried out as described above. The results are calculated using the area under the curve of absorbance measured for 6 minutes, and expressed by the percentage inhibition. The platelet aggregation measurements are carried out at 37° C. in glass tubes (Chrono-Log aggregometer—Kordia). 4 μl of the test compound (solution 100 times more concentrated than the desired final concentration, in DMSO) are mixed with 392 μl of fresh PRP, and incubated for 1 minute with stirring. Then, 4 μl of a solution of ADP at 250 μM are added to the mixture. The aggregation measurements are monitored for 6 to 8 minutes, with constant stirring, by recording the variations in the optical density according to the method of G.V.R. BORN (Born Nature (1962) 194, 927).

[2] = system: platelet aggregation (rat blood, platelet-rich plasma); assay: Inhibition of platelet aggregation ex vivo (rat blood); assay type: in vivo
Procedure: The platelet aggregation measurements are carried out at 37° C. in glass tubes (Chrono-Log aggregometer—Kordia). 4 μl of the test compound (solution 100 times more concentrated than the desired final concentration, in DMSO) are mixed with 392 μl of fresh PRP, and incubated for 1 minute with stirring. Then, 4 μl of a solution of ADP at 250 μM are added to the mixture. The aggregation measurements are monitored for 6 to 8 minutes, with constant stirring, by recording the variations in the optical density according to the method of G.V.R. BORN (Born Nature (1962) 194, 927). Inhibition of Platelet Aggregation Ex Vivo (Rat Blood) Male rats of the Sprague-Dawley strain, weighing 250-300 g, are used in a proportion of 6 animals per batch. Each test compound is diluted in a glucose solution (5% glucose) containing 5% of cremophor and 3% of glycofurol. […] The sample is taken on 3.8% sodium citrate (1 volume for 9 blood volumes) by abdominal aortic puncture after the animal has been anesthetized with sodium pentobarbital. The platelet-rich plasma (PRP) is obtained by centrifugation of the blood at 300 g for 5 minutes, and the platelet aggregation measurements are carried out as described above. The results are calculated using the area under the curve of absorbance measured for 6 minutes, and expressed by the percentage (%) inhibition.

[3] = system: platelet aggregation (human blood, platelet-rich plasma); assay: Inhibition of platelet aggregation in vitro (human blood); assay type: cell-based; details: human PRP from healthy volunteers, ADP-induced, size of aggregation as height
Procedure: Inhibition of Platelet Aggregation In Vitro (Human Blood) Blood is taken from healthy volunteers, using 20 ml syringes containing 2 ml of buffered sodium citrate. The blood is transferred into polypropylene tubes and centrifuged for 5 minutes (100 g) at ambient temperature (without using the brake of the centrifuge). The platelet-rich plasma (PRP) supernatant is then removed, diluted, and counted for platelets before being used in the aggregation measurements. The platelet aggregation measurements are carried out at 37° C. in glass tubes (Chrono-Log aggregometer—Kordia). 4 μl of the test compound (solution 100 times more concentrated than the desired final concentration, in DMSO) are mixed with 392 μl of fresh PRP, and incubated for 1 minute with stirring. Then, 4 μl of a solution of ADP at 250 μM are added to the mixture. The aggregation measurements are monitored for 6 to 8 minutes, with constant stirring, by recording the variations in the optical density according to the method of G.V.R. BORN (Born Nature (1962) 194, 927). The results are calculated using the size of the aggregation expressed as height, and expressed by the percentage inhibition.

[4] = oral gavage, t = 2 h after administration, read-out: Inhibition of platelet aggregation ex vivo (rat blood), Gavage (oral)

`CCCC(=O)c1cnn([C@H]2CC[C@H](NC(=O)c3cn(CC(=O)N4CCN(CCOC)CC4)c4ccc(Cl)cc34)CC2)c1C` (as salt: hydrochloride) [Compound 2, 5-Chloro-1-{2-[4-(2-methoxyethyl)piperazin-1-yl]-2-oxoethyl}-1H-indole-3-carboxylic acid [4-(4-butyryl-5-methylpyrazol-1-yl)cyclohexyl]-amide hydrochloride] showed a melting point of 263 °C.
Compound `CCCC(=O)c1cnn([C@H]2CC[C@H](NC(=O)c3cn(CC(=O)N4CCN(CCC(F)(F)F)CC4)c4ccc(Cl)cc34)CC2)c1C` (as salt: hydrochloride) [Compound 3, 5-Chloro-1-{2-oxo-2-[4-(3,3,3-trifluoropropyl)piperazin-1-yl]ethyl}-1H-indole-3-carboxylic acid [4-(4-butyryl-5-methylpyrazol-1-yl)cyclohexyl]amide hydrochloride] has a melting point of 249 °C.
`CCCC(=O)c1cnn([C@H]2CC[C@H](NC(=O)c3cn(CC(=O)N4CCN(C)CC4)c4ccc(Cl)cc34)CC2)c1C` [Compound 1, 5-Chloro-1-[2-(4-methylpiperazin-1-yl)-2-oxoethyl]-1H-indole-3-carboxylic acid [4-(4-butyryl-5-methyl-pyrazol-1-yl)-cyclohexyl]amide hydrochloride] gave an IC50 [1] of 91 nM, an inhibition at 3 mg/kg ([2]; 0.5 h, intravenous infusion, 30 min after administration, read-out: Inhibition of platelet aggregation ex vivo (rat blood), Infusion (Intravenous)) of 79 ± 5% and an inhibition at 3 mg/kg [2, 4] of 42.8 ± 10.7%. For the same compound, the IC50 [3] was 270 nM.
In the case of `CCCC(=O)c1cnn([C@H]2CC[C@H](NC(=O)c3cn(CC(=O)N4CCN(CCOC)CC4)c4ccc(Cl)cc34)CC2)c1C` [Compound 2, 5-Chloro-1-{2-[4-(2-methoxyethyl)piperazin-1-yl]-2-oxoethyl}-1H-indole-3-carboxylic acid [4-(4-butyryl-5-methylpyrazol-1-yl)cyclohexyl]-amide hydrochloride], the IC50 [1] is reported as 80 nM.
With `CCCC(=O)c1cnn([C@H]2CC[C@H](NC(=O)c3cn(CC(=O)N4CCN(CCC(F)(F)F)CC4)c4ccc(Cl)cc34)CC2)c1C` [Compound 3, 5-Chloro-1-{2-oxo-2-[4-(3,3,3-trifluoropropyl)piperazin-1-yl]ethyl}-1H-indole-3-carboxylic acid [4-(4-butyryl-5-methylpyrazol-1-yl)cyclohexyl]amide hydrochloride] the IC50 [1] was 294 nM.
For `CCCC(=O)c1cnn(C2CCN(NC(=O)c3cn(CC(=O)N4CCN(C)CC4)c4ccc(Cl)cc34)CC2)c1C` [Compound 4, 5 -Chloro-1-[2-(4-methylpiperazin-1-yl)-2-oxoethyl]-1H-indole-3-carboxylic acid [4-(4-butyryl-5-methylpyrazol-1-yl)piperidin-1-yl]amide hydrochloride], the IC50 [1] was 43 nM, the inhibition at 1 mg/kg ([2]; intravenous infusion, dose 1 mg/kg, t = 2 h after administration) was 88 ± 5% and the inhibition at 3 mg/kg [2, 4] was 72 ± 15%. It also gave an IC50 [3] of 25 nM.
With `CCCC(=O)c1cnn(C2CCN(NC(=O)c3cn(CC(=O)N4CCN(CCOC)CC4)c4ccc(Cl)cc34)CC2)c1C` [Compound 5, 5-Chloro-1-{2-[4-(2-methoxyethyl)piperazin-1-yl]-2-oxoethyl}-1H-indole-3-carboxylic acid [4-(4-butyryl-5-methylpyrazol-1-yl-piperidin-1-yl]amide hydrochloride] the IC50 [1] was 17 nM.
`CCCC(=O)c1cnn(C2CCN(NC(=O)c3cn(CC(=O)N4CCN(CCOC(F)(F)F)CC4)c4ccc(Cl)cc34)CC2)c1C` [Compound 6, 5-Chloro-1-{2-oxo-2-[4-(2-trifluoromethoxyethyl)piperazin-1-yl]ethyl}-1H-indole-3-carboxylic acid [4-(4-butyryl-5-methylpyrazol-1-yl)piperidin-1-yl]amide hydrochloride] showed an IC50 [1] of 46 nM.
